Test: LC-HRMS analysis of PCB52 metabolites in tissues after 4 h nose-only inhalation
Type: in vivo, Sprague–Dawley rats
Procedure: The Institutional Animal Care and Use Committee of the University of Iowa approved all of the animal protocols. Animals were housed in a temperature- and humidity-controlled room (21 °C, 55% relative humidity) with a 12 h light/dark cycle in an Association for the Assessment and Accreditation of Laboratory Animal Care (AAALAC) accredited animal facility. Animals were provided with food (sterile Teklad 5% stock diet, Harlan, Madison, WI) and water ad libitum throughout the study. Thirty-six male and female Sprague–Dawley rats (7 weeks of age; Charles River, Wilmington, MA) were allowed to acclimate to the animal facility for 8 days after arrival. Prior to exposure, rats (227 ± 27 and 197 ± 13 g, male and female, respectively) were randomly assigned to the exposure groups (n = 6 per group) using a random number generated (Excel, version 2307). Animals were simultaneously exposed for 4 h to a low or high concentration of PCB52-laden per sex) or filtered lab air (Figure 1A). Exposure duration was limited to 4 h along with scheduled training days (30 min at 55 days of age and 2 h at 56 days of age) to acclimate animals and minimize stress. […]
Tissues (brain, cecum and intestinal content, liver, lung, and serum) were homogenized and extracted for LC-HRMS analysis following a published approach; see the Supporting Information.[19] Extracts were analyzed at the High-Resolution Mass Spectrometry Facility at the University of Iowa on a Q-Exactive Orbitrap mass spectrometer (Thermo Fisher Scientific, Waltham, MA, U.S.A.) with an Axquity UPLC-C18 column (particle size: […], 2.1 × 100 mm, Waters, Milford, MA, U.S.A.); see the Supporting Information. […]
All analyses were conducted by using validated standard operating procedures. […] X1-OH-PCB52 estimated concentrations were calculated based on the relative response factor of 4-OH-PCB52. The precision and recoveries of the analyses were further assessed by measuring the recovery of PCB52 and 4-OH-PCB52 from spiked sample blanks and matched blank tissue matrices (Table S6). […]
were extracted and analyzed in parallel. […]

Q: Which results are given for `Clc1ccc(Cl)c(-c2cc(Cl)ccc2Cl)c1` [PCB52, 2,2′,5,5′-tetrachlorobiphenyl]?
A: number of PCB52 metabolites identified by LC-HRMS (liver): 7 metabolites; number of PCB52 metabolites identified by LC-HRMS (lung): 9 metabolites; number of PCB52 metabolites identified by LC-HRMS (serum): 9 metabolites
